Several values for one entry are separate records, joined by “and”; a condition that tells them apart may be missing. Identical values can stand only once.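 A five-concentration, 48-hour dose response in 96-well plates underlies each endpoint, interpolated linearly between surrounding concentrations. GI50 = concentration required for 50% inhibition of growth. At the TGI there is no net growth.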
How the values were obtained:
Test in all cases: growth of human tumour cells (NCI), 48 h
NCI-H522 lung = tested on: NCI-H522 lung
OVCAR-4 ovarian = tested on: OVCAR-4 ovarian
T-47D breast = tested on: T-47D breast
UACC-62 melanoma = tested on: UACC-62 melanoma
HS 578T breast = tested on: HS 578T breast
OVCAR-5 ovarian = tested on: OVCAR-5 ovarian
HCT-15 colon = tested on: HCT-15 colon
CAKI-1 renal = tested on: CAKI-1 renal
NCI/ADR-RES ovarian = tested on: NCI/ADR-RES ovarian
A549 NSCLC = tested on: A549 NSCLC

Compound | GI50 (NCI-H522 lung) | TGI (NCI-H522 lung) | GI50 (OVCAR-4 ovarian) | TGI (OVCAR-4 ovarian) | GI50 (T-47D breast) | TGI (T-47D breast) | GI50 (UACC-62 melanoma) | TGI (UACC-62 melanoma) | GI50 (HS 578T breast) | TGI (HS 578T breast) | GI50 (OVCAR-5 ovarian) | TGI (OVCAR-5 ovarian) | GI50 (HCT-15 colon) | TGI (HCT-15 colon) | GI50 (CAKI-1 renal) | TGI (CAKI-1 renal) | GI50 (NCI/ADR-RES ovarian) | TGI (NCI/ADR-RES ovarian) | GI50 (A549 NSCLC) | TGI (A549 NSCLC)
COc1ccc(-c2ccc(/C=C/C(=O)NO)cc2)cc1 | 0.801 µM | 16.4 µM | 0.362 µM | 4.44 µM | 1.47 µM | 5.58 µM | 1.15 µM | 3.43 µM | 3.15 µM | 56.3 µM | 1.74 µM | 17.7 µM | 0.468 µM | 58.7 µM | 1.42 µM | 6.11 µM | 0.533 µM | 3.22 µM | 0.317 µM | 6.14 µM
CCN1CCN(c2nc(NNC(=O)Cc3ccccc3)nc(N3CCN(C(c4ccccc4)c4ccccc4)CC3)n2)CC1 | 1.99 µM | 4.18 µM | 4.71 µM | 17.5 µM | 1.85 µM | 4.8 µM | 1.71 µM | 3.46 µM | 1.68 µM | 3.79 µM | 2.24 µM | 5.63 µM | 1.9 µM | 3.76 µM | 1.7 µM | 3.31 µM | 3.37 µM | 14 µM | 2.17 µM | 5.23 µM
Cc1ccc2c(c1)C(=O)c1c-2n(CCCN)c(=O)c2cc([N+](=O)[O-])ccc12 | 0.2 µM | 0.985 µM | 0.605 µM | 1.26 µM | 0.157 µM | 0.461 µM | 0.522 µM | 1.11 µM | 1.54 µM | 3.44 µM | 0.873 µM | 1.58 µM | 0.351 µM | 1.01 µM | 0.0716 µM | 0.419 µM | 0.594 µM | 1.45 µM | 0.2 µM | 0.887 µM
C/C(=C\c1ccc(Cl)cc1)C(C)(C)C(=O)O | – | > 100 µM | – | > 100 µM | – | > 100 µM | – | > 100 µM | – | > 100 µM | – | > 100 µM | – | > 100 µM | – | > 100 µM | – | > 100 µM | – | > 100 µM
COc1ccc(-c2oc(=O)ccc2C#Cc2cc(OC)c(OC)c(OC)c2)cc1O | 8.7 µM | 37.5 µM | 67 µM | > 100 µM | 30.7 µM | > 100 µM | 13.5 µM | 63.5 µM | 30.2 µM | > 100 µM | > 100 µM | > 100 µM | 26.3 µM | > 100 µM | 32.8 µM | > 100 µM | 24.4 µM | > 100 µM | 39.5 µM | > 100 µM
COc1ccc2c(c1)CCC1C2CC[C@@]2(C)C1CC[C@@]2(O)CNC(=O)/C=C/c1ccc(O)c(OC)c1 (stereo not given in full) | 19.9 µM | > 100 µM | 14.9 µM | > 100 µM | 9.12 µM | > 100 µM | 12.1 µM | 34.9 µM | 75.3 µM | > 100 µM | 45.5 µM | > 100 µM | 11.5 µM | 33.1 µM | 21.9 µM | > 100 µM | 12.5 µM | 83.4 µM | 22.3 µM | > 100 µM
CC(CN=C(CC(=O)c1ccc(Br)cc1)c1ccccc1)N=C(CC(=O)c1ccc(Br)cc1)c1ccccc1 (stereo not given) | 5.53 µM | > 100 µM | 8.15 µM | > 100 µM | 3.09 µM | > 100 µM | 32 µM | > 100 µM | > 100 µM | > 100 µM | > 100 µM | > 100 µM | 43.6 µM | > 100 µM | 67.1 µM | > 100 µM | 14.2 µM | > 100 µM | 7.6 µM | > 100 µM
CC(=O)Oc1ccc(OC(C)=O)c2ccccc12 | 2.04 µM | 5.41 µM | 1.71 µM | 3.1 µM | 1.21 µM | 3.16 µM | 6.94 µM | 19.9 µM | 13.2 µM | 67.1 µM | 17.5 µM | 31.7 µM | 14.3 µM | 34.5 µM | 6.79 µM | 23.3 µM | 3.27 µM | 15.2 µM | 34.9 µM | > 100 µM
O=C(c1ccccc1Nc1ccnc(C(F)(F)F)c1)N1CCN(c2cccc(Cl)c2)CC1 | 15.4 µM | 63.5 µM | 12.7 µM | > 100 µM | 10.7 µM | 74.4 µM | 10.6 µM | 25.7 µM | 17.3 µM | 89.2 µM | 27.9 µM | > 86.4 µM | 24.1 µM | > 100 µM | 21 µM | 75 µM | 16.2 µM | 59.5 µM | 21.2 µM | > 100 µM
CCCS(=O)(=O)Nc1ccc(F)c(C(=O)c2c[nH]c3ncc(-c4ccc(Cl)cc4)cc23)c1F | 7.14 µM and > 7.96 µM | 22.3 µM and > 10 µM | 6.13 µM and > 7.33 µM | 25.7 µM and > 10 µM | 5.34 µM and 5.13 µM | 24.8 µM and > 10 µM | 0.0241 µM and 0.034 µM | 0.496 µM and 0.485 µM | 1.3 µM and 1.96 µM | 6.44 µM and 9.94 µM | 10.2 µM and > 9.13 µM | 30 µM and > 10 µM | 4.45 µM and 4.1 µM | 17.7 µM and > 10 µM | 2.63 µM and 2.81 µM | 16.5 µM and > 10 µM | 6.75 µM and > 10 µM | 31.6 µM and > 10 µM | 3.46 µM and 6.38 µM | 25 µM and > 10 µM
COc1ccc(OC)c(-c2nc3sccn3c2/C=C2/C(=O)Nc3ccc(Cl)cc32)c1 | 21.5 µM | 51.6 µM | 26.8 µM | 73.9 µM | 26.6 µM | 70.1 µM | 11.8 µM | 26.6 µM | 15.6 µM | 53.5 µM | 30 µM | > 100 µM | 23.1 µM | 58.9 µM | 30.1 µM | > 100 µM | 25.6 µM | 89.8 µM | 38.9 µM | > 100 µM
C(=N\Nc1nnc2c(n1)[nH]c1ccccc12)/c1cccnc1 | – | > 100 µM | – | > 100 µM | – | > 100 µM | – | > 100 µM | – | > 100 µM | – | > 100 µM | – | > 100 µM | – | > 100 µM | – | > 100 µM | – | > 100 µM
COc1ccc(C(=O)c2cc(OC)c(OC)c(OC)c2)cc1OC(C)=O | 0.017 µM | > 100 µM | 0.0822 µM | > 100 µM | 19.9 µM | > 100 µM | 0.448 µM | > 100 µM | 0.0235 µM | > 100 µM | 4.55 µM | > 100 µM | < 0.0136 µM | > 100 µM | 0.0746 µM | > 100 µM | < 0.0153 µM | > 100 µM | 0.115 µM | > 100 µM

— PubChem BioAssay (NCI)
